Results on 11 molecules are retold here after publication PMC4834639, “Steroid binding to Autotaxin links bile salts and lysophosphatidic acid signalling” (Nature Communications, 2016).

Experiment [1] has as its target T1, hATX (Homo sapiens, UniProt Q13822).
Protocol: (§1) All biochemical studies were performed with hATX. ATX lysoPLD activity was measured by choline release from LPC[47]. […] The relative amount of released choline was measured by HVA fluorescence in a 96-well plate (Corning). Fluorescent intensity was determined at λex/λem=320/450 nm every 30 s for 90 min with a Fluorostar plate reader (BMG Labtech). Data analysis was performed using GraphPad Prism.
(§2) The experiments for determining IC50 for different bile salt inhibitors were performed by adding the named bile salt and performing serial threefold dilutions; for each bile salt concentration, the velocity of the reaction was monitored as a function of time in the lysoPLD assay as described above.
(§3) For initial comparison between competitive, uncompetitive and non-competitive inhibition by TUDCA, using the LPC and the FS3 assays, we measured the relative velocity for increasing LPC or FS3 substrate concentrations, for no-inhibitor and for three different inhibitor concentrations. The relative velocity for each data point was measured by linear regression as described above, and a Michaelis–Menten curve was created for each inhibitor concentration. We then used the following equations to describe each mode of inhibition:
(§4) where in addition to previous definitions that can be derived from equations (4–6), we define Part as the partiality of the inhibition and α as an estimated constant that determines mechanism: if α=1, the formula becomes identical to equation (4) and the inhibition mode is noncompetitive; if a is very large, then the model approaches a competitive model equation (3); if a is very small but greater than zero, the model approaches an uncompetitive model.
(§5) This procedure allowed a more robust fit to determine all parameters from all available experiments.
(§6) All modelling was performed using the regression analysis tools within the Graphpad/Prism software. The values of all derived parameters indicate mean values as obtained by nonlinear regression analysis using the formulas listed above; triplicate data were used as separate observations during the fit; ±values indicate the standard error of the mean.
Experiment [2] addresses T1, hATX. Put plainly: Mass spectrometry analysis of sterols associated with recombinant ATX preparation. Set-up: made in house; host or cells: HEK 293 Flp-In cells. The note with it: for amount found in ATX preparation: representative ATX preparation containing 2.4 pmol ATX; for Ratio to ATX: representative ATX preparation, ATX = 1.0. Here is the method:
Recombinant hATX preparations or buffer controls were extracted using acidified organic solvents as reported previously for lipid extractions from cells and tissues[45] with inclusion of deuterium-labelled cholesterol of oxysterol internal standards as detailed below. Samples were evaporated to dryness and reconstituted in methanol for mass spectrometry analysis.
Cholesterol and hydroxysterols were analysed using an AB Sciex 4000-Qtrap hybrid linear ion trap triple quadrupole mass spectrometer in multiple reaction monitoring mode connected to a Shimadzu HPLC. Cholesterol was analysed in positive multiple reaction monitoring mode using a Machery Nagel Nucleodur C8 gravity column, 5 μm, 125 × 2 mm^2 with a flow rate of 0.5 ml min^−1. Solvent A consists of 75/25 of methanol/water with 0.5% formic acid and 0.1% 5 mM ammonium formate and solvent B consists of 99/1 of methanol/water with 0.5% formic acid and 0.1% 5 mM ammonium formate. The cholesterol measurements were conducted exactly as reported previously with quantification accomplished by reference to a deuterated internal standard. Oxysterols were measured after dimethylglycine (DMG) derivatization using an Agilent Zorbax Eclipse XDB-C18 column, 5 μm, 4.6 × 150 mm^2 with a flow rate of 0.5 ml min^−1. Solvent A was 85% methanol with 5 mM ammonium acetate and solvent B consisted of 80:20:2 of chloroform/water/50 mM ammonium acetate. In brief, we obtained authentic standards for 25-, 24-, 27, 7-α and 4-β OH cholesterol and deuterated 25-OH cholesterol and prepared DMG derivatives exactly as previously described. We obtained product ion spectra from the doubly and singly charged DMG derivatives of these compounds that were essentially identical to those reported previously with some differences in product ion abundances that are likely attributable to differences between our mass spectrometer system and that used by Jiang et al.[46]. […] Quantification of oxysterols was accomplished by reference to the deuterated 25-OH cholesterol internal standard as explained below.
Cholesterol was detected in all ATX preparations analysed.
As reported by Jiang et al.[46], bis-DMG derivatives of hydroxylated cholesterol generate doubly charged molecular ions (m/z=287.3), which fragment to produce protonated DMG (m/z=104.1) and production of singly charged mono-DMG derivative ions (m/z=367.2). […] Accordingly, we established a selected ion-monitoring mode HPLC LC MS/MS assay that monitored these ion pairs. […] Quantification was accomplished by comparing the integrated peak area for the […]/104.1 ion pair to that of the corresponding ion pair from the deuterated 25-OH cholesterol internal standard. That ATX preparation analysed contained 1.48 pmol of 7-OH cholesterol.

Experiment [3] concerns the target T1, hATX. Description: biochemical.
Protocol: as §1, §2, §3, §4, §5, §6
Experiment [4] relates to ATX-mediated LPAR1 endocytosis in HeLa cells. Put plainly: LPA1 receptor internalization assay in GFP-LPA1-transfected HeLa cells. The note with it: 0.1 μM LPC, 5 nM ATX, 500 μM TUDCA, 15 min, P<0.001.
Protocol: HeLa cells (obtained from American Type Culture Collection) were grown in DMEM supplemented with 10% fetal bovine serum at 37 °C under 5% CO2. For LPA1 internalization studies, HeLa cells were transient transfected with GFP-LPA1 plasmid using X-tremeGene 9 (Roche) reagent according to the manufacturer's instructions. At 10 h after transfection, the cells were rinsed with SF-DMEM and incubated in the same medium for 16–24 h before further treatments. […] Slides were examined on a Leica TCS-SP5 confocal microscope (× 62 objective) and analysed using ImageJ software.
[5] abbreviates: LPC(18:1) substrate, result in words.

“Also recorded” adds a separate entry of the source. Where two headings read alike, the source gives them in different places.

`CC(C)CCC[C@@H](C)[C@H]1CC[C@H]2[C@@H]3[C@H](O)C=C4C[C@@H](O)CC[C@]4(C)[C@H]3CC[C@]12C` [7HCS, 7α-hydroxycholesterol]: the “effect on ATX-mediated LPC hydrolysis” value on hATX [1] (setting [5]) is given as “no effect”. On hATX [2], the “amount found in ATX preparation” value was found to be 1.48 pmol and the “Ratio to ATX” value was found to be 0.62.
Regarding `CC(C)CCC[C@@H](C)[C@H]1CC[C@H]2[C@@H]3CC=C4C[C@@H](O)CC[C@]4(C)[C@H]3CC[C@]12C` [Cholesterol], on hATX [2], the “amount found in ATX preparation” value came to 0.35 pmol and the “Ratio to ATX” value is listed as 0.15.
What is called IC50 is the midpoint of a concentration-inhibition curve. A lower IC50 goes with inhibition by little substance. In turn, `C[C@H](CCCC(C)(C)O)[C@H]1CC[C@H]2[C@@H]3[C@H](O)C=C4C[C@@H](O)CC[C@]4(C)[C@H]3CC[C@]12C` [DHCS, 7α,25-Dihydroxycholesterol] yielded a concentration for half-maximal inhibition (IC50) against hATX [3] greater than 1000 µM. Further, the “effect on ATX-mediated LPC hydrolysis” value on hATX [1] (setting [5]) was “no effect”.
For the molecule `C[C@H](CCC(=O)NCC(=O)O)[C@H]1CC[C@H]2[C@@H]3[C@H](O)C[C@@H]4C[C@H](O)CC[C@]4(C)[C@H]3CC[C@]12C` [GCDCA, Glycochenodeoxycholic acid], on hATX [3], 8.1 ± 0.7 µM corresponded to half-maximal inhibition (IC50). For the same molecule, the “effect on ATX-mediated LPC hydrolysis” value at hATX [1] (setting [5]) is given as “did not significantly change potency”.
`C[C@H](CCC(=O)NCCS(=O)(=O)O)[C@H]1CC[C@H]2[C@@H]3[C@H](O)C[C@@H]4C[C@H](O)CC[C@]4(C)[C@H]3C[C@H](O)[C@]12C` [TCA, Taurocholic acid]: the IC50 against hATX [3] is greater than 1000 µM. The “effect on ATX-mediated LPC hydrolysis” value at hATX [1] is given as “abrogate the inhibitory activity”.
As for `C[C@H](CCC(=O)NCCS(=O)(=O)O)[C@H]1CC[C@H]2[C@@H]3CC[C@@H]4C[C@H](O)CC[C@]4(C)[C@H]3C[C@H](O)[C@]12C` [TDCA, Taurodeoxycholic acid], at hATX [3], the IC50 is greater than 1000 µM. In addition, the “effect on ATX-mediated LPC hydrolysis” value on hATX [1] (setting [5]) is given as “abrogate the inhibitory activity”.
For `C[C@H](CCC(=O)NCCS(=O)(=O)O)[C@H]1CC[C@H]2[C@@H]3[C@@H](O)C[C@@H]4C[C@H](O)CC[C@]4(C)[C@H]3CC[C@]12C` [TUDCA, Tauroursodeoxycholic acid], in experiment [4], the “ATX-mediated LPAR1 endocytosis (number of GFP-LPA1 endosomes)” value is on record as “reduces ATX-mediated LPAR1 endocytosis; also recorded: reduces the number of endosomes”.
Molecule `C[C@H](CCC(=O)O)[C@H]1CC[C@H]2[C@@H]3[C@@H](O)C[C@@H]4C[C@H](O)CC[C@]4(C)[C@H]3CC[C@]12C` [UDCA, Ursodeoxycholic acid] registered a half-inhibitory concentration (IC50) against hATX [3] of 8.8 ± 0.5 µM.
As to `C[C@@H]1C[C@H]2[C@@H]3CCC4=CC(=O)C=C[C@]4(C)[C@@]3(F)[C@@H](O)C[C@]2(C)[C@@]1(O)C(=O)CO` [dexamethasone], the “effect on ATX-mediated LPC hydrolysis” value on hATX [1] (setting [5]) is recorded as “no effect”.
Regarding `C[C@]12C=CC(=O)C=C1CC[C@@H]1[C@@H]2[C@@H](O)C[C@@]2(C)[C@H]1CC[C@]2(O)C(=O)CO` [prednisolone], the “effect on ATX-mediated LPC hydrolysis” value on hATX [1] (setting [5]) is “no effect”.
As for `C[C@]12CC[C@H]3[C@@H](CCC4=CC(=O)CC[C@@]43C)[C@@H]1CC[C@@H]2O` [testosterone], the “effect on ATX-mediated LPC hydrolysis” value on hATX [1] (setting [5]) is “no effect”.
